Test results as given in patent US20090253634A1, “Methods and Compositions for the Treatment of Gastrointestinal Disorders” (MICROBIA, INC., priority 2005, published 2009).
Bridge positions count the residues as written; N and C are the ends. Peptide text beside a SMILES is read from it.

Legend:
[1] = test system: response to colorectal distension; experiment: partial restraint stress-induced hyperalgesia model; assay type: in vivo, Wistar rats; settings: oral 0.3 and 3.0 μg/kg; distending pressure 15 mm Hg; p<0.0001
Experimental: Five groups of female Wistar rats (weighing 200-250 g each), were surgically prepared for electromyography as described (Morteau et al. 1994 Dig Dis Sci 39:1239-48) and were used to evaluate the effects of SEQ ID NO:3 on colorectal sensitivity and compliance after a 2 hour partial restraint stress session. Partial restraint stress (PRS), a relatively mild stress, was induced as previously described (Morteau et al., 1994 Dig Dis Sci 39:1239-48). Female rats were lightly anesthetized with diethyl ether and their shoulders, upper forelimbs and thoracic trunk were wrapped in a confining harness of paper tape to restrict, but not prevent body movements. Control sham-stress animals were anesthitized but not wrapped. […] Electrical activity was recorded with an electroencephalograph (Mini VIII, Alvar, Paris, France) using a short time constant (0.03 sec.) to remove low-frequency signals (<3 Hz) and a paper speed of 3.6 cm/minute. […] Colonic pressure and balloon volume were continuously monitored on a potentiometric recorder (L6514, Linseis, Selb, Germany) with a paper speed of 1.0 cm/minute. The number of spike bursts, corresponding to abdominal contractions, was evaluated per 5-minute period. Colorectal volumes were determined as the maximal volume obtained for each stage of distension using the potentiometric recorder. […] The values were expressed as mean±SEM.

bowel habits = experiment: seven-day oral dosing study of bowel habits in humans; assay type: in vivo
Experimental: Seven daily doses of 30, 100, 300, or 1000 μg of chemically synthesized SEQ ID NO:3 were given to 48 healthy subjects. SEQ ID NO:3 or placebo (vehicle) was administered orally in 5.0 mL 50 mM phosphate buffer (pH 6.0) plus 3×20 mL water rinses and 175 mL water after at least a 10-hour fast. In each dosing group, 8 subjects were randomized to receive SEQ ID NO:3 and 4 subjects were randomized to receive placebo. […] The Mean Ease of Passage (FIG. 15d) of stools was tested for subjects treated with 30-1000 μg SEQ ID NO:3.

[2] = test system: ligated loops of intestine; experiment: ligated intestinal loop model in rats; assay type: in vivo, CD rats; settings: center loop of the rat small intestine; 5 μg
Experimental: The loop was roughly centered and was a length of 1-3 cm. The loops were injected with 100 μl of either SEQ ID NO:3 (5 μg) or vehicle (20 mM Tris, pH 7.5 or Krebs Ringer, 10 mM Glucose, HEPES buffer (KRGH)). Following a recovery time of 90 minutes the loops were excised. Weights were recorded for each loop before and after removal of the fluid contained therein. The length of each loop was also recorded. A weight to length ratio (W/L) for each loop was calculated to determine the effects of SEQ ID NO:3 on secretion.
To determine the effect of SEQ ID NO:3 on cGMP activity, fluid from the loop was collected in ice-cold trichloracetic acid (TCA) and stored at −80° C. for use in an assay to measure cGMP levels in the fluid. Intestinal fluid samples were TCA extracted, and cyclic GMP was measured by EIA according to procedures outlined in the Cayman Chemical Cyclic GMP EIA kit (Cayman Chemical, Ann Arbor, Mich.) to determine cyclic GMP levels in the intestinal fluid of the mouse in the presence of either SEQ ID NO:3 or vehicle.
In the case of the rat, however four loops of intestine were surgically ligated. The first three loops were distributed equally in the small intestine and the fourth loop was located in colon. Loops were 1 to 3 centimeters, and were injected with 200 μL of either SEQ ID NO:3 (5 μg) or vehicle (Krebs Ringer, 10 mM glucose, HEPES buffer (KRGH)).

[3] = test system: intestinal transit after abdominal surgery; experiment: rat model of postoperative ileus; assay type: in vivo, CD rats; settings: oral 10 μg/kg, 20 minutes after charcoal meal
Experimental: Female CD rats were used to test the effect of SEQ ID NO:3 on delayed transit induced by abdominal surgery and manual manipulation of the small intestine. Groups of at least nine rats underwent abdominal surgery under isoflurane anesthesia. Surgery consisted of laparotomy and 5 minutes of gentle manual intestinal massage. Following recovery from anesthesia, rats were dosed orally with either 10 μg/kg SEQ ID NO:3 or vehicle (20 mM Tris) in a volume of 300 μl. 1 hour after dosing, intestinal transit rate was measured. Animals were again dosed with 300 μl of the test article followed immediately by 500 μl of a charcoal meal (10% charcoal, 10% gum arabic in water). To calculate the distance of the small intestine traveled by the charcoal front, after 20 minutes, the total length of the intestine as well as the distance traveled from the stomach to the charcoal front were measured for each animal. Animals dosed with 10 μg/kg SEQ ID NO:3 experienced an increase in transit following abdominal surgery compared to animals dosed with vehicle alone (FIG. 16). Charcoal transit in SEQ ID NO:3 dosed animals was measured at 37.3+3.0% (mean±SEM) of the small intestine compared with vehicle at 24.7+1.4% (mean±SEM) of the small intestine.

aminopeptidase = molecular target: T1, aminopeptidase (Sus scrofa, UniProt P15145); experiment: in vitro proteolytic stability: aminopeptidase; assay type: in vitro ADME; settings: 37° C., up to 24 h
T1 construct: purchased Roche 102768
T1 sequence (P15145 1-963): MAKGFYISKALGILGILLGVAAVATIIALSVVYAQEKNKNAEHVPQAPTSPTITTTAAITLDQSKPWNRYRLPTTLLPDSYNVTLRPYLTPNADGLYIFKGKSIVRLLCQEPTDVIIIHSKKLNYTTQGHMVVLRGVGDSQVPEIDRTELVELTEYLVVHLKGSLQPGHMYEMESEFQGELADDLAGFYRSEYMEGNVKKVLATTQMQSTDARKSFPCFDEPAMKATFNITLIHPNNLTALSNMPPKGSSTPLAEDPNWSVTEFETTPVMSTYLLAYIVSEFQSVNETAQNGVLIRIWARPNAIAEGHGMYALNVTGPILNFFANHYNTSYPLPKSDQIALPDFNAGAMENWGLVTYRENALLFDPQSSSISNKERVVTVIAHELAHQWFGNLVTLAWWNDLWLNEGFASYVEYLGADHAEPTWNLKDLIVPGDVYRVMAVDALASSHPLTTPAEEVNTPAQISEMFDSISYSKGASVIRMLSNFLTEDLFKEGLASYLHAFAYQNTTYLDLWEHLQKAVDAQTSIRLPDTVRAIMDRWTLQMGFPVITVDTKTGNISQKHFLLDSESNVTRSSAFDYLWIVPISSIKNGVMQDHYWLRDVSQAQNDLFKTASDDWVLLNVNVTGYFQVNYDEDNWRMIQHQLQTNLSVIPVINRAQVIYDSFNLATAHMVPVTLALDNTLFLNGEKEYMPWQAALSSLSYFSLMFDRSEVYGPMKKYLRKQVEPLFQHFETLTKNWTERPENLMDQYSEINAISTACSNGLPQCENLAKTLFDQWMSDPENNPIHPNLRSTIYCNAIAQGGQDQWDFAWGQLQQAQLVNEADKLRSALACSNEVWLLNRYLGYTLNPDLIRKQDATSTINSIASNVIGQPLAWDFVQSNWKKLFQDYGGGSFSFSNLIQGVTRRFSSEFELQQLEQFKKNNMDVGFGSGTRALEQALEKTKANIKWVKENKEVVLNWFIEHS
Experimental: All samples were analyzed by LC/MS

SMILES: C[C@@H]1NC(=O)[C@@H]2CCCN2C(=O)[C@H](CC(N)=O)NC(=O)[C@@H]2CSSC[C@H](N)C(=O)N[C@H]3CSSC[C@H](NC1=O)C(=O)N[C@@H]([C@@H](C)O)C(=O)NCC(=O)N[C@H](C(=O)N[C@@H](Cc1ccc(O)cc1)C(=O)O)CSSC[C@H](NC(=O)[C@H](Cc1ccc(O)cc1)NC(=O)[C@H](CCC(=O)O)NC3=O)C(=O)N2 [SEQ ID NO:3] (H-CCEYCCNPACTGCY-OH; disulfide 1-6, 2-10, 5-13; N-terminus and C-terminus assumed)
- response to CRD after partial restraint stress [1]: reduced the response to CRD
- Mean Ease of Passage of stools, baseline versus treatment, versus placebo (bowel habits; 1000 μg dose group): greatest difference in baseline versus treatment values
- Mean Stool Weight (bowel habits; seven daily oral doses 30-1000 μg, higher doses): increase in Mean Stool Weight
- Mean Stool Frequency (stools per week) (bowel habits; seven daily oral doses 30-1000 μg, higher doses, healthy subjects): increase in Mean Stool Frequency score
- cGMP levels in ligated loop [2]: increases
- secretion in ligated loop [2]: increases
- Charcoal transit, of the small intestine (mean±SEM) [3]: 37.3 ± 3.0%
- Cleavage of SEQ ID NO: 3 by proteolytic substance (aminopeptidase): not detectable
